Biological target: T1, human β3 adrenergic receptor (Homo sapiens, UniProt P13945)
T1 construct: expressed in transfected cells; host or cells: Chinese hamster ovary (CHO) cells, stably transfected
Experiment: Functional assay: cAMP production (LANCE TR-FRET) in CHO cells stably transfected with cloned β3 adrenergic receptor
Assay type: cell-based
Conditions: Table 4; human β3 functional activity; read-out: Human β Binding
How it was run: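 Agonist-stimulated cAMP in CHO cells stably expressing human β3 receptor, 6,000 cells per well in HBSS/HEPES/0.1% BSA with 0.6 mM IBMX, 30 min at room temperature. LANCE TR-FRET readout converted to cAMP via standard curve; maximal stimulation defined with isoproterenol.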

T1 sequence (P13945 whole entry): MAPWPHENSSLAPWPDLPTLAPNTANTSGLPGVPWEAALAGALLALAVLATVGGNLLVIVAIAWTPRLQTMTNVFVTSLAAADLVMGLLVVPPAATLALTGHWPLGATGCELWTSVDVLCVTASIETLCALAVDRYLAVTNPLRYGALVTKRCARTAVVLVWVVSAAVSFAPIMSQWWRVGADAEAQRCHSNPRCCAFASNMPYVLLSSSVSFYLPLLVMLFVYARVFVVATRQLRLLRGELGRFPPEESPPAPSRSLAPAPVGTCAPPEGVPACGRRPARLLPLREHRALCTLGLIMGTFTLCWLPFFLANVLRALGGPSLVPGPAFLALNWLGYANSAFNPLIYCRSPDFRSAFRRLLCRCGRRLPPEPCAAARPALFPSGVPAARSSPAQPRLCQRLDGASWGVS

SMILES | EC50
O=C(Cc1nnc(-c2ccncc2)[nH]1)Nc1ccc(C[C@@H]2CC[C@H]([C@H](O)c3ccccc3)N2)cc1 [Example 25] | 11 to 100 nM
COc1cccc(N2CCCC2C(=O)Nc2ccc(C[C@@H]3CC[C@H]([C@H](O)c4ccccc4)N3)cc2)c1 (stereo partly drawn) [Example 36] | 1 to 10 nM
O=C(Cc1nnc(Cc2ccccc2)[nH]1)Nc1ccc(C[C@@H]2CC[C@H]([C@H](O)c3ccccc3)N2)cc1 [Example 33] | 11 to 100 nM
O=C(Cn1nc(Cc2ccccc2)c2ccccc2c1=O)Nc1ccc(C[C@@H]2CC[C@H]([C@H](O)c3ccccc3)N2)cc1 [Example 18] | 1 to 10 nM
NC(=O)c1nn(CC(=O)Nc2ccc(C[C@@H]3CC[C@H]([C@H](O)c4ccccc4)N3)cc2)c(=O)c2ccccc12 [Example 54] | 1 to 10 nM
O=C(Nc1ccc(C[C@@H]2CC[C@H]([C@H](O)c3ccccc3)N2)cc1)c1ccccc1-c1nnn[nH]1 [Example 13] | 11 to 100 nM
O=C(Nc1ccc(C[C@@H]2CC[C@H]([C@H](O)c3ccccc3)N2)cc1)C1CCCN1c1ccc(Cl)cc1 (stereo partly drawn) [Example 37] | 101 to 1000 nM
O=C(CC1NC(=O)NC1=O)Nc1ccc(C[C@@H]2CC[C@H]([C@H](O)c3ccccc3)N2)cc1 (stereo partly drawn) [Example 69] | 101 to 1000 nM

The next lines start with the values.

EC50 | SMILES
1 to 10 nM | Cc1nonc1CC(=O)Nc1ccc(C[C@@H]2CC[C@H]([C@H](O)c3ccccc3)N2)cc1 [Example 82]
11 to 100 nM | O=C(Cn1ccncc1=O)Nc1ccc(C[C@@H]2CC[C@H]([C@H](O)c3ccccc3)N2)cc1 [Example 67]
11 to 100 nM | O=C(Cn1cnnn1)Nc1ccc(C[C@@H]2CC[C@H]([C@H](O)c3ccccc3)N2)cc1 [Example 77]
101 to 1000 nM | O=C(Cc1cccnc1)Nc1ccc(C[C@@H]2CC[C@H]([C@H](O)c3ccccc3)N2)cc1 [Example 44]
1 to 10 nM | O=C(Cn1cnc2ccccc2c1=O)Nc1ccc(C[C@@H]2CC[C@H]([C@H](O)c3ccccc3)N2)cc1 [Example 16]
11 to 100 nM | O=C(Cc1ncccn1)Nc1ccc(C[C@@H]2CC[C@H]([C@H](O)c3ccccc3)N2)cc1 [Example 46]
11 to 100 nM | O=C(Cc1ccccc1F)Nc1ccc(C[C@@H]2CC[C@H]([C@H](O)c3ccccc3)N2)cc1 [Example 70]
11 to 100 nM | O=C(Nc1ccc(C[C@@H]2CC[C@H]([C@H](O)c3ccccc3)N2)cc1)c1ccccc1-n1nccn1 [Example 11]

Same assay, conditions: Table 5; read-out: Human β3 Functional

SMILES | EC50
O=C(Nc1ccc(C[C@@H]2CC[C@H]([C@H](O)c3ccccc3)N2)cc1)C1CCc2sc(F)nc21 (single isomer, unassigned) [Example 147] | < 1 nM
Cc1nc2c(s1)CCCC2C(=O)Nc1ccc(C[C@@H]2CC[C@H]([C@H](O)c3ccccc3)N2)cc1 (single isomer, unassigned) [Example 121] | 1 to 10 nM
O=C(Nc1ccc(C[C@@H]2CC[C@H]([C@H](O)c3ccccc3)N2)cc1)C1CCc2sc(F)nc21 (single isomer, unassigned) [Example 146] | < 1 nM
O=C(Nc1ccc(C[C@@H]2CC[C@H]([C@H](O)c3ccccc3)N2)cc1)C1CCc2sc(-c3ccc(F)cc3)nc21 (single isomer, unassigned) [Example 122] | 101 to 1000 nM

Further lines, results first:

EC50 | SMILES
11 to 100 nM | O=C(Nc1ccc(C[C@@H]2CC[C@H]([C@H](O)c3ccccc3)N2)cc1)C1CCCn2nnnc21 (single isomer, unassigned) [Example 152]
11 to 100 nM | COC(=O)c1cnnn1C(C)C(=O)Nc1ccc(C[C@@H]2CC[C@H]([C@H](O)c3ccccc3)N2)cc1 (single isomer, unassigned) [Example 194]
1 to 10 nM | CC(C(=O)Nc1ccc(C[C@@H]2CC[C@H]([C@H](O)c3ccccc3)N2)cc1)n1cnnn1 (single isomer, unassigned) [Example 172]
1 to 10 nM | CC(C(=O)Nc1ccc(C[C@@H]2CC[C@H]([C@H](O)c3ccccc3)N2)cc1)n1nncc1C(=O)O (single isomer, unassigned) [Example 196]
1 to 10 nM | CC(C(=O)Nc1ccc(C[C@@H]2CC[C@H]([C@H](O)c3ccccc3)N2)cc1)n1cnc2ccccc2c1=O (single isomer, unassigned) [Example 166]
1 to 10 nM | CC(C(=O)Nc1ccc(C[C@@H]2CC[C@H]([C@H](O)c3ccccc3)N2)cc1)n1cc(C(N)=O)nn1 (single isomer, unassigned) [Example 192]
1 to 10 nM | COCCC(C(=O)Nc1ccc(C[C@@H]2CC[C@H]([C@H](O)c3ccccc3)N2)cc1)n1cccn1 (single isomer, unassigned) [Example 223]
1 to 10 nM | Cc1ccc(=O)n(C(C)C(=O)Nc2ccc(C[C@@H]3CC[C@H]([C@H](O)c4ccccc4)N3)cc2)n1 (single isomer, unassigned) [Example 165]
101 to 1000 nM | CC(C(=O)Nc1ccc(CC2CCC(C(O)c3ccccc3)N2)cc1)c1ccn(C)n1 (single isomer, unassigned) [Example 186]
101 to 1000 nM | Cc1nnc2n1C(C(=O)Nc1ccc(C[C@@H]3CC[C@H]([C@H](O)c4ccccc4)N3)cc1)CC2 (single isomer, unassigned) [Example 127]
11 to 100 nM | O=C(Nc1ccc(C[C@@H]2CC[C@H]([C@H](O)c3ccccc3)N2)cc1)C1CCc2ncnn21 (single isomer, unassigned) [Example 128]
11 to 100 nM | COc1ncncc1C(C)C(=O)Nc1ccc(C[C@@H]2CC[C@H]([C@H](O)c3ccccc3)N2)cc1 (single isomer, unassigned) [Example 212]
11 to 100 nM | Cc1nnc2n1C(C(=O)Nc1ccc(C[C@@H]3CC[C@H]([C@H](O)c4ccccc4)N3)cc1)CC2 (single isomer, unassigned) [Example 126]
11 to 100 nM | COc1ncncc1C(C)C(=O)Nc1ccc(C[C@@H]2CC[C@H]([C@H](O)c3ccccc3)N2)cc1 (single isomer, unassigned) [Example 213]

Same assay, conditions: Table 7; β3AR-cAMP; read-out: Human β3 Functional

SMILES | EC50
O=S(=O)(Nc1ccc(C[C@@H]2CC[C@H]([C@H](O)c3ccccc3)N2)cc1)c1ccc2ncsc2c1 [Example 239] | 11 to 100 nM
O=S(=O)(Cc1ccncc1)Nc1ccc(C[C@@H]2CC[C@H]([C@H](O)c3ccccc3)N2)cc1 [Example 250] | 101 to 1000 nM

Same assay, conditions: Table 8; read-out: Human β3 Functional

SMILES | EC50
O=C(Nc1ccc(C[C@@H]2CC[C@H]([C@H](O)c3ccccc3)N2)cc1)N1CCc2cccnc21 [Example 257] | 101 to 1000 nM
O=C(NCc1nnc(-c2ccccc2)[nH]1)Nc1ccc(C[C@@H]2CC[C@H]([C@H](O)c3ccccc3)N2)cc1 [Example 255] | 1 to 10 nM
CC(NC(=O)Nc1ccc(C[C@@H]2CC[C@H]([C@H](O)c3ccccc3)N2)cc1)c1cscn1 (stereo partly drawn) [Example 252] | 101 to 1000 nM

Same assay, conditions: Table 10; β3AR-cAMP; read-out: Human β3 Functional

SMILES | EC50
O=C(Nc1ccc(C[C@@H]2CC[C@H]([C@H](O)c3cccc(F)c3)N2)cc1)[C@H]1CCc2scnc21 [Example 278] | 11 to 100 nM

Same assay, conditions: Table 11; read-out: Human β3 Functional

SMILES | EC50
Nc1nc2c(s1)CCC2C(=O)Nc1ccc(CC2CCC(C(O)c3ccc(F)cc3)N2)cc1 (single isomer, unassigned) [Example 282] | 11 to 100 nM

Same assay, conditions: given as a range; cAMP, CHO cells; read-out: human β3 functional activity

SMILES | EC50
C[C@H](NS(=O)(=O)c1ccc(F)cc1)C(=O)Nc1ccc(C[C@@H]2CC[C@H]([C@H](O)c3ccccc3)N2)cc1 [Example 264, (2S)-2-{[(4-Fluorophenyl)sulfonyl]amino}-N-[4-({(2S,5R)-5-[(R)-hydroxy(phenyl)methyl]pyrrolidin-2-yl}methyl)phenyl]propanamide] | 11 to 100 nM

Same assay, conditions: human β3 functional activity, shown as ranges; Table 14; read-out: Human β3 Functional

SMILES | EC50
Nc1nc2c(s1)CCC2C(=O)Nc1ccc(CC2CCC(C(O)c3cccc(Cl)c3)N2)cc1 (single isomer, unassigned) [Example 310] | < 1 nM

Biological target: T2, β3AR (Rattus norvegicus, UniProt P26255)
T2 construct: host or cells: rat, in vivo (bladder)
Experiment: not given
Conditions: rats, intravenous administration, cystometric studies; prolonged micturition interval without increasing residual urine volume; cited from earlier work

T2 sequence (P26255 whole entry): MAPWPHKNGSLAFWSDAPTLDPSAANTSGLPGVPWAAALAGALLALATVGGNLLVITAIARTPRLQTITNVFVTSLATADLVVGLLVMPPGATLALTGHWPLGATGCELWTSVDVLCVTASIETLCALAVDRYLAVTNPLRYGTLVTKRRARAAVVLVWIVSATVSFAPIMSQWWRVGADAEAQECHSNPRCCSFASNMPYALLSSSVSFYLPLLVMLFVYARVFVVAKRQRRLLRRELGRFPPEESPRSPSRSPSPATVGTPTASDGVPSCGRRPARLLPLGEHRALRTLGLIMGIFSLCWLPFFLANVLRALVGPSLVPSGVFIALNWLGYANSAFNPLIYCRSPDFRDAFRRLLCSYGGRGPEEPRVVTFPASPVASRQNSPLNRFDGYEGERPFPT

SMILES | bladder capacity
C[C@H](Cc1ccc2c(c1)OC(C(=O)[O-])(C(=O)[O-])O2)NC[C@H](O)c1cccc(Cl)c1.[Na+].[Na+] [CL316243] | increases bladder capacity

Same assay, conditions: rats, intravenous administration; cited from earlier work

SMILES | bladder pressure
C[C@H](Cc1ccc2c(c1)OC(C(=O)[O-])(C(=O)[O-])O2)NC[C@H](O)c1cccc(Cl)c1.[Na+].[Na+] [CL316243] | reduces bladder pressure

Source: US8399480B2, “Hydroxymethyl pyrrolidines as beta 3 adrenergic receptor agonists” (Merck Sharp & Dohme Corp., priority 2008, dated 2013)
